This is an account of results in patent US20100183600A1, “RAF Inhibitors and Their Uses” (ARQULE, INC., priority 2008, published 2010).

In brackets after ≈: the same amount, converted by molar mass. Entries after “also recorded” stand apart in the source; their conditions may differ.

For one series, the target named is T1, mutant B-RAF (Homo sapiens, UniProt P15056, V600E).
T1 construct: purchased Upstate (Charlottesville, Va.)
As to the kind of experiment: Measurement of RAF activity (MEK-1 phosphorylation). It counts as biochemical. Particulars: 50 μM ATP, MEK-1 substrate; read-out: Mut-B-Raf IC50. How it is done: Materials: The RAF kinases and the anti-phospho MEK1/2 antibody were from Upstate (Charlottesville, Va.). The RAF substrate used was full length N-terminal GST-MEK-1, which was expressed in E. coli and purified in-house by HPLC. All proteins were aliquoted and stored at −80° C. Superblock™ in phosphate buffered saline (PBS) blocking reagent was form Pierce (cat. #37515). ATP was from Roche (cat. # 19035722). Alkaline Phosphatase-tagged goat anti-rabbit antibody was from Pierce (cat. # 31340).
Methods: All RAF biochemical assays were performed using an assay buffer containing 20 mM MOPS, 5 mM EGTA, 37.5 mM MgCl2, 1 mM DTT and 50 μM ATP. There was 6.25 ng/well mutant B-RAF and 7.5 ng/well MEK-1 in the final assay conditions. Compounds were serially diluted in assay buffer containing 1% DMSO and 20 μl of test compound at a concentration 3-fold more than the final concentration, and were added to a polypropylene V-well reaction plate. Vehicle control wells received buffer only with DMSO at equivalent concentrations to the test wells. […] These reaction plates were incubated at room temperature for 30 minutes. Capture of MEK-1 was initiated by transferring 50 μl of the reaction mixture to a Nunc Maxisorp™ microplate that is designed for non-specific protein capture. After 30 minute capture of MEK-1 at room temperature, this plate was washed with TBST (6×200 μL/well) to fully terminate the reaction. The plate was then blocked for 1 hour by the addition of 100 μl/well of Superblock™ in phosphate buffered saline (PBS) blocking reagent. Plate was again washed with TBST (6 times with 200 μl/well), followed by the addition of 70 μl/well of Upstate anti-phospho MEK ½ diluted 1:1000 in Pierce Superblock (PBS). After a 60 minute incubation, this plate was washed with TBST (6 times with 200 μl/well), and 70 μl of the secondary antibody (Pierce Alkaline Phosphatase tagged goat anti-rabbit) prepared at 1:4000 in Superblock, were added. After a 45 minute incubation at room temperature, the wells of the microplate were washed with TBST (6 times with 200 μl/well), and thereafter 100 μl/well of Attophos™ fluorescent alkaline phosphatase substrate was added according to the manufacturer's instructions (JBL Scientific). Fluorescence was read on a Perkin Elmer Envision multilabel reader, using the following filters: Excitation Filter: CFP430 nM, Emission Filter: Emission Filter 579 nM.

A short description of series [1]: Equilibrium solubility at varying pH (shake flask). Particulars: for solubility: 25 °C, thermodynamic from solid. It counts as physicochemical. How it is done: Solubility of the compounds was determined by the traditional shake flask method. Aliquots of solid compounds were mixed with an appropriate buffer of the desired pH and equilibrated by shaking at room temperature (˜25° C.) for 6-24 hours. Following aqueous buffers were used for the pH control: 0.1N HCl pH=1.2, 50 mM Lactate buffer pH=3.0, 50 mM Acetate buffer pH=5.0, and 100 mM Phosphate buffer pH 7.4. After equilibration, samples were filtered through a 0.45 um filter and analyzed by HPLC/UV against the calibration curves of standard solution.

The next series has as its system human tumors (A375). As to the kind of experiment: Xenograft model in athymic mice. It counts as in vivo, mouse. As to the method: Compound 17 was injected intra-peritoneally (IP) at 160 mg/kg and compound 19 was injected IP at 300 mg/kg (equivalent dose if expressed in mmole/kg, taking into account salt components).
A mouse xenograft model was performed according to the method of Jacob et al, Gene Ther Mol Biol 2004; 8:213-219 and Wilhelm et al, Cancer Research 2004; 64: 7099-7109.
Animal Care. Six week old female NCr nu/nu mice were purchased from Taconic Farms, Germantown, N.Y. and allowed to acclimate 1-2 weeks. Mice were housed in sterile micro isolator cages, 5 mice per cage and receive food and water ad libitum. All experimental procedures and surgical manipulations were approved in accordance with ArQule's Institutional Animal Care and Use Committee (IACUC).
Tumor Cell Lines and Model. Carcinoma cell lines were obtained from and propagated as recommended by American Type Tissue Culture (ATCC), (Manassas, Va.). Mice were implanted subcutaneously with 2.5-10×10^6 cells in 0.1 ml sterile Hanks Balanced Salt Solution (HBSS) in the upper right flank area. […] Tumor weight (mg) was calculated from the equation length×(width)^2)/2; this formula can also be used to calculate tumor volume assuming unit density 1 mg=1 mm^3 Percent inhibition or tumor growth inhibition (TGI) was calculated using the following formula: 1-[mean tumor value of treated/mean tumor value of control]×100. […]

In the next series the test system is p-Erk (A375). The experiment in a line: Cell-based phosphorylation assay with electroblotting readout. On the set-up: species or system human. Particulars: Homo sapiens, A-375; A375 cells, 1 hr. From the text: Compounds of the present invention have been screened for their ability to inhibit all isoforms, both wild-type and mutant of RAF kinases (A-RAF, B-RAF and C-RAF) in general, and the mutant B-RAF (V600E) in particular in human cancer cells. A375 is a human melanoma cell line that harbors the most common B-RAF mutation-V600E found in human cancers. The ability of compounds to inhibit RAF kinases in this assay is correlated with the reduction of MEK and ERK phosphorylation, and is therefore a direct indicator of potential in vivo therapeutic activity.
Materials: A375 cells from ATCC were maintained at 37° C., 5% CO2 in DMEM media supplemented with 10% fetal bovine serum, penicillin/streptomycin and fungizone. (Invitrogen)
Methods: Test compounds were dissolved and diluted 1:1000 in DMSO. A375 cells were seeded in six-well tissue culture plates at 5-8×10^5 per well and cultured at 37° C. for 24 h. Cells were incubated with compounds for one hour before being lysed in EPage™ loading buffer (Invitrogen). Lysates were electrophoresed on 8% EPage™ gels and transferred to polyvinylidene difluoride membranes. After incubations with primary and secondary antibodies, the immunostained proteins were detected and quantitated by an Odyssey infrared imager (LI-COR). Analysis was performed by non-linear regression to generate a dose response curve. The calculated IC50 value was the concentration of the test compound that causes a 50% decrease in phospho-MEK and phospho-ERK levels. The primary antibodies used were anti-MEK (Stressgen), anti-ERK (BD Biosciences), anti-phospho-ERK and anti-phospho-MEK (Cell Signaling). The secondary antibodies used were IRDYE800 anti-rabbit, IRDYE 800 anti-mouse (Rockland), AlexaFluor680 anti-mouse and AlexaFluoro680 anti-rabbit (Invitrogen).
A375 cells were treated with 0, 12, 37, 111, 333 and 1000 nM of indicated compounds for 1 hr. The levels of Phospho-ERK and total-ERK were accessed by immunoblotting.

Setting [2] is: aqueous buffer (0.1N HCl), pH 1.2, simulated gastric fluid.

T1 sequence (P15056 whole entry V600E): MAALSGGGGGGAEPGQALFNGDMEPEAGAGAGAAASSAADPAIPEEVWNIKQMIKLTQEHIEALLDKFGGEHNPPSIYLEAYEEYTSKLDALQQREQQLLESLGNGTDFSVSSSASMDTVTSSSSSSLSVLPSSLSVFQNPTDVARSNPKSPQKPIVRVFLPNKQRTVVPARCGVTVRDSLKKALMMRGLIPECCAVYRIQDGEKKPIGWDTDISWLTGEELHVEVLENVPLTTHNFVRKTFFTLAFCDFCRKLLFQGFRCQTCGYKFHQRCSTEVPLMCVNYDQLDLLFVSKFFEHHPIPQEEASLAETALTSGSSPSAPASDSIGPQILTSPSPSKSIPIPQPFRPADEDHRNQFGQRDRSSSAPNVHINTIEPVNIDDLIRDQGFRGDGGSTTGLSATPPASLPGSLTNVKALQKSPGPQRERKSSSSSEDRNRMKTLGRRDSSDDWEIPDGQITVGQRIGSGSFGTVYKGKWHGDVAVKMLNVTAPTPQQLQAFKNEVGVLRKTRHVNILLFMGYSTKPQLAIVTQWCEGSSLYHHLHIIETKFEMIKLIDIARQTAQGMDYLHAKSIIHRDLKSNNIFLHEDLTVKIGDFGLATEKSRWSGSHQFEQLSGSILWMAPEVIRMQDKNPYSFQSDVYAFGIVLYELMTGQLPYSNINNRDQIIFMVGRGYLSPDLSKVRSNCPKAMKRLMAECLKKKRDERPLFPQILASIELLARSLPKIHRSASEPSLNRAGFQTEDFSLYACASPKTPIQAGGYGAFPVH

For `Cn1ccc(S(=O)(=O)N2CCC[C@@H](Nc3nccc(-c4c(-c5cccc(OCOP(=O)(O)O)c5)nc5occn45)n3)C2)n1` [Compound 19, (R)-(3-(5-(2-(1-(1-methyl-1H-pyrazol-3-ylsulfonyl)piperidin-3-ylamino)pyrimidin-4-yl)imidazo[2,1-b]oxazol-6-yl)phenoxy)methyl dihydrogen phosphate], the IC50 at mutant B-RAF amounted to 2920 nM. The solubility in series [1] (aqueous buffer (50 mM acetate buffer), aqueous buffer, pH 5.0) was over 13000 µg/mL; in series [1] (aqueous buffer (100 mM phosphate buffer), pH 7.4, aqueous buffer) it was over 300000 µg/mL; in series [1] (setting [2]), under 1300 µg/mL. Moreover, the “solubility in aqueous solution compared with compound 17” value in series [1] (at or near biologically relevant pH) is “dramatically more soluble”. For the same compound, the “anti-tumor activity in a xenograft cancer model” value in the series on human tumors (A375) (IP at 300 mg/kg, FIG. 3, 300 mg/kg) is “retain their anti-tumor activity; also recorded: equally effective”. This compound also displayed an EC50 in the series with p-Erk (A375) of 95 nM.

On to `Cn1ccc(S(=O)(=O)N2CCC[C@@H](Nc3nccc(-c4c(-c5cccc(O)c5)nc5occn45)n3)C2)n1` [Compound 17, (R)-3-(5-(2-(1-(1-methyl-1H-pyrazol-3-ylsulfonyl)piperidin-3-ylamino)pyrimidin-4-yl)imidazo[2,1-b]oxazol-6-yl)phenol], for which, on mutant B-RAF, the IC50 amounted to 8 nM. For the same compound, the solubility in series [1] (aqueous buffer (50 mM lactate buffer), aqueous buffer, pH 3.0) is 10 µg/mL (≈ 19.2 µM); in series [1] (setting [2]), 1050 µg/mL (≈ 2020 µM). The Aqueous solubility entry in series [1] (pH 5.0) and in series [1] (pH 7.4) was “insoluble” each time. In addition, the “anti-tumor activity in a xenograft cancer model” value with human tumors (A375) (IP at 160 mg/kg, FIG. 3, 160 mg/kg) is “retain their anti-tumor activity; also recorded: equally effective”. For the same compound, the EC50 in the series with p-Erk (A375) was 93 nM.

The term IC50 denotes the concentration that gives 50% inhibition. A word on the solubility: it is how much of the substance goes into solution per volume. Higher therefore signals a readily soluble substance. By EC50 is commonly meant the concentration that produces a half-maximal response.
